# According to patent US9120770B2, “Substituted pyridine and pyrazine compounds as PDE4 inhibitors” (DART NEUROSCIENCE (CAYMAN) LTD., priority 2013, dated 2015):
# Molecular target: PDE4D3 (Homo sapiens, UniProt Q08499)
# Sequence (Q08499 1-673 isoform Q08499-2): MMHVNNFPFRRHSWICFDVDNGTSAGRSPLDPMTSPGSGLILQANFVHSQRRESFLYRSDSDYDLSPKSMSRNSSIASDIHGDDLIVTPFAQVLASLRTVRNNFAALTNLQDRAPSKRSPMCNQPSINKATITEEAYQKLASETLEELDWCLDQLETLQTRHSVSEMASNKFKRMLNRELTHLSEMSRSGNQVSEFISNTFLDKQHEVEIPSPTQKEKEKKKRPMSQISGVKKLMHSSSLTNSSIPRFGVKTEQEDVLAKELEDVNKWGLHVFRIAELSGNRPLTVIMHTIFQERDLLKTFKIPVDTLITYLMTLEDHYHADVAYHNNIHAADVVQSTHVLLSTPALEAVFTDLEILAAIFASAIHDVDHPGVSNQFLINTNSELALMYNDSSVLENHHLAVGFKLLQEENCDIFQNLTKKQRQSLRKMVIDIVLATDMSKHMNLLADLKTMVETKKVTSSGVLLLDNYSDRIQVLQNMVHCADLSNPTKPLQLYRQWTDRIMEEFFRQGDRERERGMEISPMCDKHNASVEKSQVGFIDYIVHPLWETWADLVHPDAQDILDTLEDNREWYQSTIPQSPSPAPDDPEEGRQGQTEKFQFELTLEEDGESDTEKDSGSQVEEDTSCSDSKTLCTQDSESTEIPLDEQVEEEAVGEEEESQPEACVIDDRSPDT
row,SMILES,EC50 [nM]
1,"CCOc1ncc(Cn2cnc(C(=O)OC)n2)nc1-c1cccc(Cl)c1 [Example 197, Methyl 1-{[6-(3-chlorophenyl)-5-ethoxypyrazin-2-yl]methyl}-1H-1,2,4-triazole-3-carboxylate]",1000 to 10000
2,"CC(C)Oc1ncc(Cn2cncn2)cc1-c1cccc(Cl)c1 [Example 135, 3-(3-Chlorophenyl)-2-(propan-2-yloxy)-5-(1H-1,2,4-triazol-1-ylmethyl)pyridine]",1000 to 10000
3,"COc1ncc(Cc2cnc(N)nc2)cc1-c1ccnc(OC(F)F)c1 [Example 47, 5-({5-[2-(Difluoromethoxy)pyridin-4-yl]-6-methoxypyridin-3-yl}methyl)pyrimidin-2-amine]",< 100
4,"COc1ncc(Cn2cnc(N)n2)cc1-c1cccc(OC(F)F)c1 [Example 217, 1-({5-[3-(Difluoromethoxy)phenyl]-6-methoxypyridin-3-yl}methyl)-1H-1,2,4-triazol-3-amine]",< 100
5,"CNc1ncn(Cc2cnc(OC(F)F)c(-c3cccc(Cl)c3)c2)n1 [Example 238, 1-{[5-(3-Chlorophenyl)-6-(difluoromethoxy)pyridin-3-yl]methyl}-N-methyl 1H-1,2,4-triazol-3-amine]",100 to 1000
6,"CCOc1ncc(Cc2cnc(N)nc2)cc1-c1cccc(Cl)c1 [Example 40, 5-{[5-(3-Chlorophenyl)-6-ethoxypyridin-3-yl]methyl}pyrimidin-2-amine]",< 100
7,"CCOc1ncc(Cc2ccc(C(N)=O)nc2)nc1-c1cccc(OC(F)F)c1 [Example 124, 5-({6-[3-(Difluoromethoxy)phenyl]-5-ethoxypyrazin-2-yl}methyl)pyridine-2-carboxamide]",< 100
8,"CCOc1ncc(Cn2cc(C(F)F)nn2)cc1-c1cccc(OC(F)F)c1 [Example 269, 3-[3-(Difluoromethoxy)phenyl]-5-{[4-(difluoromethyl)-1H-1,2,3-triazol-1-yl]methyl}-2-ethoxypyridine]",100 to 1000
9,"COc1ncc(Cn2cnc(N)n2)cc1-c1cccc(C#N)c1 [Example 223, 3-{5-[(3-Amino-1H-1,2,4-triazol-1-yl)methyl]-2-methoxypyridin-3-yl}benzonitrile]",100 to 1000
10,"Nc1ccc(Cc2cnc(OC(F)F)c(-c3cccc(Cl)c3)c2)nn1 [Example 111, 6-{[5-(3-Chlorophenyl)-6-(difluoromethoxy)pyridin-3-yl]methyl}pyridazin-3-amine]",100 to 1000
11,"COc1ncc(Cc2cnc(Cl)nc2)cc1-c1cccc(Cl)c1 [Example 2, 2-Chloro-5-{[5-(3-chlorophenyl)-6-methoxypyridin-3-yl]methyl}pyrimidine]",100 to 1000
12,"CCOc1ncc(Cn2cnc(N)n2)cc1-c1ccnc(OC(F)F)c1 [Example 230, 1-({5-[2-(Difluoromethoxy)pyridin-4-yl]-6-ethoxypyridin-3-yl}methyl)-1H-1,2,4-triazol-3-amine]",< 100
13,"COc1ncc(Cc2cncnc2)cc1-c1cccc(Cl)c1 [Example 78, 5-{[5-(3-Chlorophenyl)-6-methoxypyridin-3-yl]methyl}pyrimidine]",< 100
14,"CCOc1ncc(Cc2ccc(C#N)nc2)nc1-c1cccc(OC(F)F)c1 [Example 103, 5-({6-[3-(Difluoromethoxy)phenyl]-5-ethoxypyrazin-2-yl}methyl)pyridine-2-carbonitrile]",< 100
15,"COc1ncc(Cc2ccc(C#N)cc2)nc1-c1cccc(Cl)c1 [Example 86, 4-{[6-(3-Chlorophenyl)-5-methoxypyrazin-2-yl]methyl}benzonitrile]",100 to 1000
16,"COc1ncc(Cc2cnc(C#N)nc2)nc1-c1cccc(Cl)c1 [Example 22, 5-{[6-(3-Chlorophenyl)-5-methoxypyrazin-2-yl]methyl}pyrimidine-2-carbonitrile]",> 10000
17,"COc1ncc(Cc2ccc(C(N)=O)nc2)cc1-c1cccc(Cl)c1 [Example 116, 5-{[5-(3-Chlorophenyl)-6-methoxypyridin-3-yl]methyl}pyridine-2-carboxamide]",100 to 1000
18,"FC(F)Oc1ncc(Cn2cnnn2)cc1-c1cccc(Cl)c1 [Example 161, 3-(3-Chlorophenyl)-2-(difluoromethoxy)-5-(1H-1,2,3,4-tetrazol-1-ylmethyl)pyridine]",100 to 1000
19,"COc1ncc(Cc2cnc(C(N)=O)nc2)nc1-c1cccc(OC(F)F)c1 [Example 125, 5-({6-[3-(Difluoromethoxy)phenyl]-5-methoxypyrazin-2-yl}methyl)pyrimidine-2-carboxamide]",< 100
20,"NC(=O)Cc1ccc(Cc2cnc(OC(F)F)c(-c3cccc(Cl)c3)c2)cc1 [Example 246, 2-(4-{[5-(3-Chlorophenyl)-6-(difluoromethoxy)pyridin-3-yl]methyl}phenyl)acetamide]",< 100
21,"Cc1ncn(Cc2cnc(OC(F)F)c(-c3cccc(Cl)c3)c2)n1 [Example 148, 3-(3-Chlorophenyl)-2-(difluoromethoxy)-5-[(3-methyl-1H-1,2,4-triazol-1-yl)methyl]pyridine]",< 100
22,"COc1ncc(Cc2cnc(NC3CC3)nc2)nc1-c1cccc(Cl)c1 [Example 57, 5-{[6-(3-Chlorophenyl)-5-methoxypyrazin-2-yl]methyl}-N-cyclopropylpyrimidin-2-amine]",100 to 1000
23,"COc1ncc(Cc2ccc(N)nc2)cc1-c1cccc(Cl)c1 [Example 30, 5-{[5-(3-Chlorophenyl)-6-methoxypyridin-3-yl]methyl}pyridin-2-amine]",< 100
24,"CC(C)Oc1cccc(-c2cc(Cc3cnc(N)nc3)cnc2OC(F)F)c1 [Example 42, 5-{[6-(Difluoromethoxy)-5-[3-(propan-2-yloxy)phenyl]pyridin-3-yl]methyl}pyrimidin-2-amine]",1000 to 10000
25,"COc1ncc(Cc2ccc(C(N)=O)cc2)cc1-c1cccc(Cl)c1 [Example 27, 4-{[5-(3-Chlorophenyl)-6-methoxypyridin-3-yl]methyl}benzamide]",< 100
